Reference: paper PMC9860787, “Indene-Derived Hydrazides Targeting Acetylcholinesterase Enzyme in Alzheimer’s: Design, Synthesis, and Biological Evaluation” (Pharmaceutics, 2022)
Entries after “also recorded” stand apart in the source; their conditions may differ.

Key:
hAChE = molecular target: T1, hAChE (Homo sapiens, UniProt P22303); experiment: biochemical; details: for Selectivity Ratio = (IC50 of BuChE)/(IC50 of AChE): BuChE over AChE; for IC50: Ellman method, triplicate, three independent runs, read-out: IC50 ± SE hAChE
T1 construct: ATCh (derived from human erythrocytes); from tissue; host or cells: human erythrocytes
T1 sequence (P22303 other isoform, or with tags, fused parts or gaps): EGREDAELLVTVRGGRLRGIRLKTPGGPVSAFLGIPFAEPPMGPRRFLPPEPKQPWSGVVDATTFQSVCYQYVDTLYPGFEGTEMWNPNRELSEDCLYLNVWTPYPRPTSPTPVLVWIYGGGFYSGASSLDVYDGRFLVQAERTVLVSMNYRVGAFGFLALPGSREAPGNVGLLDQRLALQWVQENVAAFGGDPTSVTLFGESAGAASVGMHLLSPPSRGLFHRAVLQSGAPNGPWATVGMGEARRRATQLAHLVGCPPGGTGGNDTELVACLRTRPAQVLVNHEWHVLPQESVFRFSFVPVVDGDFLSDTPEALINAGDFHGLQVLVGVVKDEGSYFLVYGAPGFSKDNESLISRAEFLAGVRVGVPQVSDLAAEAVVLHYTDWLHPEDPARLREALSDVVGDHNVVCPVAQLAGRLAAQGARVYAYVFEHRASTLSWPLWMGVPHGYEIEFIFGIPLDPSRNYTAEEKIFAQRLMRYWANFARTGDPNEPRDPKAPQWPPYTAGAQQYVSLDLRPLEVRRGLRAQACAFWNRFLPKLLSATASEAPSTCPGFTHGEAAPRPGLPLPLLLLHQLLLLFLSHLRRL
Experimental: (§1) Enzyme activities were determined using the Ellman spectrophotometric method. Enzyme substrates acetylthiocholine iodide (ATCh) and propionylthiocholine iodide (PTCh) were purchased from Sigma-Aldrich, Steinheim, Germany, and thiole reagent 5.5′-dithiobis-2-nitrobenzoic acid (DTNB) from Sigma-Aldrich, St. Louis, MO, USA. Donpezil and were used as reference compounds (purchased from sigma);
(§2) In initial state, ATCh (derived from human erythrocytes) and PTCh (derived from human plasma) were dissolved in water and DTNB in 0.1 M sodium phosphate buffer (pH 7.4). Sulindac analogues were dissolved in water, and all further dilutions were made in water. Final concentrations of synthetics were in the range of 0.01–200 µM, while substrates were 1.0 mM and 4.0 mM for ATCh and PTCh, respectively. The final dilution of AChE and BChE was 500 and 300 times, respectively. Briefly, 50 µL of AChE (1.00 U mL^−1) or 50 µL of BuChE (0.6 U mL^−1) and 20 µL of the test or standard compounds were incubated in 96 well plates for 30 min at room temperature. […] The IC50 values were calculated using absorbance obtained from the test and standard compounds. The assays were performed in triplicate with three independent runs.

hBuChE = molecular target: T2, hBuChE (Homo sapiens, UniProt P06276); experiment: biochemical; details: Ellman method, triplicate, three independent runs; read-out: IC50 ± SE hBuChE
T2 construct: PTCh (derived from human plasma); from tissue; host or cells: human plasma
Experimental: as §1, §2

Antioxidant DPPH assay = details: for antioxidant property (in words): DPPH assay, compared to ascorbic acid; for % Free Radicle Scavenging, Mean ± SE: DPPH
Experimental: The assay was performed by previously mentioned protocol. […] The volume of solution was adjusted to 200 μL using methanol. The 96-well plate was incubated at 37 °C for 25 min on shaking water bath with moderate shaking. The absorbance of reaction mixture was measured at 520 nm wavelength. The reducing percentage (RP) of the DPPH was determined by the equation: RP=100 (A0−Ac)/A0 where A0 was the control or untreated DPPH absorbance, and Ac was the test treated DPPH absorbance. Ascorbic acid was used as the standard for the DPPH assay. The assay was performed in triplicate.

[1] = test system: SH-SY5Y neuroblastoma cell lines; experiment: Cell line-based toxicity study, MTT assay; details: 72 h
Experimental: The toxicity of compound SD-30 was evaluated against SH-SY5Y neuroblastoma cell lines by the MTT assay according to the literature procedure with minor modifications. Briefly, the cell lines (density 1 × 10^5 cells/wells) were plated in 96 well plates and incubated for 24 h at 37 °C in CO2 incubator. Various concentrations of SD-30 ([…]) were added, and cells were incubated for 72 h. After that, […] of MTT reagent was added, and the cells were incubated for an additional 2 h. The obtained purple colored formazan crystals were solubilized in […] DMSO. The absorbance was measured at 570 nm, and the % cell viability was calculated. Each treatment was executed in triplicate and data are presented as percentage of the control.
Generally, in vitro cell line studies have been routinely used as these can be helpful in primary optimization and mechanistic investigations before animal-based toxicology studies. The evaluation of the neuroprotection effect of compound SD-30 ([…]) on human neuroblastoma SH-SY5Y cell lines was assessed through MTT (3-(4,5-dimethylthiazol-2-yl)-2,5- diphenyl tetrazolium bromide) assay This cell line is often used in AD due to its human origin and ease of maintenance.

[2] = molecular target: AChE induced Aβ 1-42 aggregation (Homo sapiens, UniProt P22303); format: biochemical; details: 10 and 20 µM, ThT, 48 h incubation
AChE induced Aβ 1-42 aggregation, sequence (P22303 32-614): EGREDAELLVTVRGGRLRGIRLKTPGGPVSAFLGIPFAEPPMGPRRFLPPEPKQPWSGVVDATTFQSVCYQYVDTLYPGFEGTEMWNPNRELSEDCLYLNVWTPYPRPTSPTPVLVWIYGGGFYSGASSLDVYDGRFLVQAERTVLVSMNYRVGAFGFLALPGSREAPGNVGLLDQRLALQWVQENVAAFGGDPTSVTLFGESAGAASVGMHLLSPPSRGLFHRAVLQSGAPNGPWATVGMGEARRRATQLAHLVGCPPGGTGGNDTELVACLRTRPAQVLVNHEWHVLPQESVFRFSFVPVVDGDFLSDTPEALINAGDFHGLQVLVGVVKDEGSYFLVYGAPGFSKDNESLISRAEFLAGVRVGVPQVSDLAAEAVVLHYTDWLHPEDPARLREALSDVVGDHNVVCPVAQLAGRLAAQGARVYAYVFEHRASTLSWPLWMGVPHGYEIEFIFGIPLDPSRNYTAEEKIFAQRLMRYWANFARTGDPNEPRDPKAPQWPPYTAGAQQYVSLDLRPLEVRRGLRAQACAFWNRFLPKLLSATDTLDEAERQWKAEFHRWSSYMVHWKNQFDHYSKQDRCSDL
Experimental: Thioflavin T (ThT) assay was performed to determine the inhibition potential of SD-30 against AChE induced Aβ 1-42 aggregation. Aβ 1-42, purchased from Sigma, dissolved in the 10 mM phosphate buffer (PBS) of pH 7.5 to get a stock concentration of […]. The test compounds were dissolved in distilled water and further diluted with PBS. Different proportions of the Aβ 1-42: Inhibitor (1:0.5, 1:10, 1:20) were used in the ThT assay. […] The mixtures were incubated at room temperature for 48 h in the dark. […] The ThT assay was performed in triplicate and in three independent runs.

SMILES | Selectivity Ratio = (IC50 of BuChE)/(IC50 of AChE) (hAChE) | IC50 (hAChE) [µM] | IC50 (hBuChE) [µM] | antioxidant property (in words) (Antioxidant DPPH assay) | % Free Radicle Scavenging, Mean ± SE (Antioxidant DPPH assay; 50 µM) [%] | % Free Radicle Scavenging, Mean ± SE (Antioxidant DPPH assay; 100 µM) [%] | concentration up to which no significant toxicity / cytotoxicity was observed [1] | effect on AChE-induced Aβ1-42 aggregation (in words) [2]
CC1=C(CC(=O)NN=Cc2cccc(O)c2O)c2cc(F)ccc2/C1=C\c1ccc([S+](C)[O-])cc1 (centres unmarked) [SD-42] | 2.86 | 92.44 ± 0.106 | 264.33 ± 0.068 | reasonable antioxidant property | 30.43 ± 0.299 | 64.98 ± 1.071 |  | 
COc1cccc(C=NNC(=O)CC2=C(C)C(=Cc3ccc([S+](C)[O-])cc3)c3ccc(F)cc32)c1 (stereo in doubt) [SD-25, 2-(5-fluoro-2-methyl-1-((E)-4-(methylsulfinyl)benzylidene)-1H-inden-3-yl)-N’-((E)-3-methoxybenzylidene) acetohydrazide] |  | > 1000 | > 1000 |  | 14.00 ± 0.345 | 40.95 ± 1.101 |  | 
O=C1O[C@H]([C@@H](O)CO)C(O)=C1O [Ascorbic acid, reference compound] |  |  |  |  | 42.66 ± 1.491 | 76.76 ± 0.708 |  | 
CC1=C(CC(=O)NN=Cc2cccc(O)c2)c2cc(F)ccc2C1=Cc1ccc([S+](C)[O-])cc1 (stereo in doubt) [SD-24, 2-(5-fluoro-2-methyl-1-((E)-4-(methylsulfinyl)benzylidene)-1H-inden-3-yl)-N’-((E)-3-hydroxybenzylidene)acetohydrazide] | 2.30 | 40.43 ± 0.067 | 92.86 ± 0.066 | reasonable antioxidant property | 17.68 ± 0.478 | 43.61 ± 0.983 |  | 
CC1=C(CC(=O)NN=Cc2c(O)cccc2O)c2cc(F)ccc2/C1=C\c1ccc([S+](C)[O-])cc1 (centres unmarked) [SD-40] | 2.63 | 108.9 ± 0.142 | 286.01 ± 0.143 |  | 28.67 ± 0.422 | 63.42 ± 0.831 |  | 
CC1=C(CC(=O)NN=Cc2ccc(O)cc2)c2cc(F)ccc2C1=Cc1ccc([S+](C)[O-])cc1 (stereo in doubt) [SD-30, 2-(5-fluoro-2-methyl-1-((E)-4-(methylsulfinyl)benzylidene)-1H-inden-3-yl)-N’-((E)-4-hydroxybenzylidene)acetohydrazide] | 3.50 | 13.9 ± 0.163 | 48.55 ± 0.136 | reasonable antioxidant properties; also recorded: reasonable antioxidant property | 17.37 ± 0.988 | 45.39 ± 1.036 | up to 30 mM | effectively inhibited AChE-induced Aβ aggregation; also recorded: effective on Aβ1-42 aggregation; also recorded: concentration-dependent decrease in the Aβ aggregation
COc1ccccc1C=NNC(=O)CC1=C(C)C(=Cc2ccc([S+](C)[O-])cc2)c2ccc(F)cc21 (stereo in doubt) [SD-31, 2-(5-fluoro-2-methyl-1-((E)-4-(methylsulfinyl)benzylidene)-1H-inden-3-yl)-N’-((E)-2-methoxybenzylidene) acetohydrazide] |  | 733.16 ± 0.143 | > 1000 |  | 12.24 ± 0.222 | 39.39 ± 0.860 |  | 
